Where two headings read alike, the source gives them in different places.
Legend:
EZH2/SUZ/EED = molecular target: T1, EZH2/SUZ/EED (Homo sapiens, UniProt O75530+Q15022+Q15910); assay: Inhibitory effect on EZH2 by the MTase-Glo method (Test Example 1); type: biochemical; details: EZH2/SUZ/EED 6.25 nM, H3 peptide 10 μM, SAM 3 μM, 30° C. 3 h, read-out: Test Example 1 WT EZH2 IC50
T1 construct: purchased BPS 51003
Outline: (§1)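 EZH2/SUZ/EED (6.25 nM) or EZH1/SUZ/EED (25 nM) pre-incubated 15 min with compound in pH 7.6 Bicine buffer, 0.5% DMSO. Biotinylated H3(21-44) peptide 10 μM plus SAM 3 μM reacted 3 h at 30 °C; MTase-Glo luminescence normalized to controls, IC50 from variable-slope fit.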

EZH1/SUZ/EED = molecular target: T2, EZH1/SUZ/EED (Homo sapiens, UniProt O75530+Q15022+Q92800); assay: Inhibitory effect on EZH1 by the MTase-Glo method (Test Example 1); type: biochemical; details: EZH1/SUZ/EED 25 nM, H3 peptide 10 μM, SAM 3 μM, 30° C. 3 h, read-out: Test Example 1 WT EZH1 IC50
T2 construct: purchased BPS 51006
T2 sequence (Q92800 2-747 limits assumed): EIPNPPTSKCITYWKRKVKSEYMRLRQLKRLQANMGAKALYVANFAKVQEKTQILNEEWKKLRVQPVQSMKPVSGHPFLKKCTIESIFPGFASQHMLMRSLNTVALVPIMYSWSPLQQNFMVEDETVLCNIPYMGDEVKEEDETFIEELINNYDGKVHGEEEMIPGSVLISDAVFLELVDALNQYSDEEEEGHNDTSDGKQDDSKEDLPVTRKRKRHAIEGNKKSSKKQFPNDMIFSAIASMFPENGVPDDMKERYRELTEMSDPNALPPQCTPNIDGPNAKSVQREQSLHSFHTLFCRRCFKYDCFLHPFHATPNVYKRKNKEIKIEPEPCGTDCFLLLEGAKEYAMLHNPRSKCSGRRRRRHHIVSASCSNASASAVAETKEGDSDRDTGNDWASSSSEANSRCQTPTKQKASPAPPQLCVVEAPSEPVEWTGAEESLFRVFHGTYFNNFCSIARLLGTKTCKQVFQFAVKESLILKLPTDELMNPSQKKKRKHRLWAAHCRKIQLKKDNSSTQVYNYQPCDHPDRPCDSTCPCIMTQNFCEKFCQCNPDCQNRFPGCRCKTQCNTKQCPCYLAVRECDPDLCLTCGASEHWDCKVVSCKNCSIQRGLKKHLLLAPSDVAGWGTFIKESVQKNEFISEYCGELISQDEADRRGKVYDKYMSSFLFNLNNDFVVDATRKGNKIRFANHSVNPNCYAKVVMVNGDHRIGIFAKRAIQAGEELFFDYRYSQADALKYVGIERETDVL
T2 sequence (Q15022 2-739 partner limits assumed): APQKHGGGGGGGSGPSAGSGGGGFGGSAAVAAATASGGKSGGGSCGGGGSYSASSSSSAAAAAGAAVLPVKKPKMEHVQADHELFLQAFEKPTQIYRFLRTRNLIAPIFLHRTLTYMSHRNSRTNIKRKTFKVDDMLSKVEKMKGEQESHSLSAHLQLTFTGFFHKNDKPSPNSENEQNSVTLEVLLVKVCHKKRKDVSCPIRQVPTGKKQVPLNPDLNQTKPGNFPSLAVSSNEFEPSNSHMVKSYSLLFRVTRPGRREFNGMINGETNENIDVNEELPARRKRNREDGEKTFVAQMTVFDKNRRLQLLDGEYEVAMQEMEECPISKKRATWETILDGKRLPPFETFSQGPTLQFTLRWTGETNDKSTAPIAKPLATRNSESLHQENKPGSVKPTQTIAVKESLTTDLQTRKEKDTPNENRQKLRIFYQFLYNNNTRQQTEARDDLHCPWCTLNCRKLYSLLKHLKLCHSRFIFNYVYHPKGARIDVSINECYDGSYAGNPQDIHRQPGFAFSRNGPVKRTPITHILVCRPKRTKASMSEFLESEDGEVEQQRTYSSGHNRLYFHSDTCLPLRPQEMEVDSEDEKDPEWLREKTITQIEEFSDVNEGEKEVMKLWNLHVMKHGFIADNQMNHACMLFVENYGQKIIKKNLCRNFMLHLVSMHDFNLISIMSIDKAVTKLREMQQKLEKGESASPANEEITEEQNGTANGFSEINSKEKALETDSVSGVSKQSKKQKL
T2 sequence (O75530 2-441 partner limits assumed): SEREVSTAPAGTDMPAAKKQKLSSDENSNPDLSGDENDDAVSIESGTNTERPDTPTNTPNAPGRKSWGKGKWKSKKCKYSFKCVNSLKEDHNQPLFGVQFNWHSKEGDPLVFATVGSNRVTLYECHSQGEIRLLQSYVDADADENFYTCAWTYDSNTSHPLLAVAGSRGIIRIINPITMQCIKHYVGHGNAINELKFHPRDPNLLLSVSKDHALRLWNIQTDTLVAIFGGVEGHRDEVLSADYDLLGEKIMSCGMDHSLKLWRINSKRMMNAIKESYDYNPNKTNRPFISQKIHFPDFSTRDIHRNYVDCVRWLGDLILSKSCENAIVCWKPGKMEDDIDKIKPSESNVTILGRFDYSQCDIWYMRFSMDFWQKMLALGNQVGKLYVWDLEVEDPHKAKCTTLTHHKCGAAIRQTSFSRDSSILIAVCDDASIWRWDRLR
Outline: as §1

[1] = tested on: H3K27Me3 methylation in Karpas-422 cells; assay: H3K27Me3 cell method, inhibition of H3K27Me3 methylation (Test Example 2); type: cell-based, human
Procedure: Karpas-422 (Nanjing Kebai, CBP60629) cells were seeded in a 96-well plate (Corning, 3894) at 15,000 cells per well in culture medium (80% 1640 (Hyclone, SH30809.01)+20% FBS (Corning, 35-081-CV)), and then added with different concentrations of compounds for treatment. The cell growth group without adding compounds is used as a positive control (maximum signal control), and the medium is used as a negative control (minimum signal control), while ensuring that in each reaction well, the final concentration of DMSO was 0.2%. Compounds and cells were incubated for 3 days in a cell culture incubator (37° C., 5% CO2). The 96-well plate was taken out from the cell culture incubator and equilibrated to room temperature, and 25 ul of cell suspension was taken out into a 384-well plate. The CCK8 (Beiyuntian, C0040) detection reagent was added, incubated at 37° C. for 1 h, and […] was detected. The rest of the cells followed the procedure of the kit EPIgeneous H3K27Me3 cellular kit (Cisbio, 62KC3PAE) to carry out experiment, read HTRF signal with BMG PHERAStar. […] By GraphPad Prism 6 with log(inhibitor)vs.response-Variable slope model simulation, the IC50 of the compound on cell activity inhibition was calculated. The fitting equation is: Y=Bottom+(Top−Bottom)/(1+10^((Log IC50−X)*HillSlope)), wherein Y represents the inhibition rate, and X represents the known concentration of the compound after Log.

Karpas-422 cells = assay: Anti-proliferation by Cell Titer-Glo method (Test Example 3); type: cell-based; details: Homo sapiens
Procedure: Karpas-422 (Nanjing Kebai, CBP60629) cells were seeded in a 96-well plate (Corning, 3894) at 1,000 cells per well in growth medium (80% 1640 (Hyclone, SH30809.01)+20% FBS (Corning, 35-081-CV)), in a total of 100 μL, and then was added with 25 μL of 5-fold different concentrations of compounds diluted in growth medium. The cell growth group without compound addition was used as a positive control (maximum signal control), and the medium was used as a negative control (minimum signal control), while ensuring that the final contration of DMSO in each reaction well was 0.2%. Then the 96-well cell plate was placed in a cell culture incubator (37° C., 5% CO2) and incubated for 3 days. On the fourth day, the cell culture plate was taken out of the incubator, using a row gun to gently blow the cells up and down to mix, removing 62.5 μL of the cell suspension, adding 50 μL of growth medium and 12.5 μL of compounds of 5 times different concentrations, and then putting them in the cell incubator to incubate for 4 days. On the eighth day, the same method was used as the fourth day to treat the cells, then incubating in the cell culture incubator for 3 days. On the eleventh day, the Cell-Titer Glo (Promega, G7573) was used to detect cell viability, and a microplate reader was used to detect the signal value of luminescence.
The inhibition rate of different concentrations of compounds on cells was calculated as inhibition rate=[1−(compound signal value−negative control signal value)/(positive control signal value-negative control signal value)][…]. The IC50 of the compound on cell activity inhibition was calculated by GraphPad Prism 6 with log(inhibitor) vs. response-Variable slope model fitting. The fitting equation is: Y=Bottom+(Top−Bottom)/(1+10^((Log IC50−X)*Hill Slope)), wherein Y represents the inhibition rate, and X represents the known concentration of the compound after Log.

[2] = Karpas-422 cells, Cell-Titer Glo on the eleventh day, read-out: Test Example 3 Karpas-422 cell anti-proliferation IC50
[3] = Homo sapiens, KARPAS-422, 72 h, Karpas-422 cells, 3 days incubation, HTRF signal, read-out: Test Example 2 H3K27Me3 inhibition (Karpas-422) IC50
[4] = KARPAS-422, read-out: Test Example 3 Karpas-422 cell anti-proliferation IC50(nM)

T1 sequence (Q15910 2-746 limits assumed): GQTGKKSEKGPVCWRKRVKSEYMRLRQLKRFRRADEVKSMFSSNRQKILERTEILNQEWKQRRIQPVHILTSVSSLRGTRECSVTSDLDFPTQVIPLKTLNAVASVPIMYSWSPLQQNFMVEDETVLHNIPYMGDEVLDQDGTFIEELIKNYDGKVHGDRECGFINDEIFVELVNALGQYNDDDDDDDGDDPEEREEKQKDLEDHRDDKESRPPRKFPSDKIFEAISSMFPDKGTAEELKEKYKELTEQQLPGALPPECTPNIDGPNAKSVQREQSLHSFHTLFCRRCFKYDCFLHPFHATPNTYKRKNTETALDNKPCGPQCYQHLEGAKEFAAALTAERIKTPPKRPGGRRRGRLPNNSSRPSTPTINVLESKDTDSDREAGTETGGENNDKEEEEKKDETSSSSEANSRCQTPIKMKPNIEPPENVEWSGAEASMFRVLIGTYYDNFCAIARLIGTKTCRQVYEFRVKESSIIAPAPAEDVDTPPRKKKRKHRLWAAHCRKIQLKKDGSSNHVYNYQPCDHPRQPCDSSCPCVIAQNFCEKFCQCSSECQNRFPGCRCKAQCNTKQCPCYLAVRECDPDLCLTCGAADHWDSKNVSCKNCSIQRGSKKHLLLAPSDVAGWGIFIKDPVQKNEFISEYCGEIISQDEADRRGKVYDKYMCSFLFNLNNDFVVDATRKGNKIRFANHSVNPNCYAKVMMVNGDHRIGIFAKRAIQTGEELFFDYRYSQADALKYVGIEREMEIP
T1 sequence (Q15022 2-739 partner limits assumed): as the sequence (Q15022 2-739 partner limits assumed) above
T1 sequence (O75530 2-441 partner limits assumed): as the sequence (O75530 2-441 partner limits assumed) above

Structure (SMILES)	IC50 (EZH2/SUZ/EED)	IC50 (EZH1/SUZ/EED)	IC50 ([1]; Karpas-422 cells, 3 days incubation, HTRF signal, read-out: Test Example 2 H3K27Me3 inhibition (Karpas-422) IC50)	IC50 (Karpas-422 cells; [2])	IC50 [1, 3]	IC50 ([1]; Homo sapiens, KARPAS-422, 72 h, read-out: Test Example 2 H3K27Me3 inhibition (Karpas-422) IC50(nM))	IC50 (Karpas-422 cells; [4])
COC1CN(C2CCC(C3COc4c(Cl)cc(C(=O)NCc5c(C)cc(C)[nH]c5=O)c(C)c4O3)CC2)C1 (single isomer, unassigned) [Compound 61]	8.8 nM	162 nM	73.8 nM	93.8 nM			
Cc1cc(C)c(CNC(=O)c2cc(Cl)c3c(c2C)OC(C2CCC(N(C)C)CC2)CO3)c(=O)[nH]1 (stereo not drawn) [Compound 2]	3.9 nM	88.5 nM		42.4 nM	31.2 nM		
CSc1cc(C)[nH]c(=O)c1CNC(=O)c1cc(Cl)c2c(c1C)OC(C1CCC(N(C)C)CC1)CO2 (stereo not drawn) [Compound 3]	3.3 nM	4.4 nM		7.6 nM	2.1 nM		
COc1cc(C)[nH]c(=O)c1CNC(=O)c1cc(Cl)c2c(c1C)OC(C1CCC(N(C)C)CC1)CO2 (stereo not drawn) [Compound 5]	2.3 nM	26 nM		23.2 nM	7.9 nM		
CSc1cc(C)[nH]c(=O)c1CNC(=O)c1cc(Cl)c2c(c1C)O[C@@H]([C@H]1CC[C@@H](N(C)C)CC1)CO2 [Compound 6]	2.5 nM	4 nM				0.59 nM	1.3 nM
COC1CN([C@H]2CC[C@@H]([C@H]3COc4c(Cl)cc(C(=O)NCc5c(SC)cc(C)[nH]c5=O)c(C)c4O3)CC2)C1 [Compound 8]	5.6 nM	6.2 nM		1.8 nM	2.4 nM		
CSc1cc(C)[nH]c(=O)c1CNC(=O)c1cc(Cl)c2c(c1C)O[C@@H]([C@H]1CC[C@@H](N3CC(OC4CC4)C3)CC1)CO2 [Compound 11]	8.1 nM	4.8 nM		1.5 nM	1.7 nM		
CSc1cc(C)[nH]c(=O)c1CNC(=O)c1cc(Cl)c2c(c1C)O[C@@H]([C@H]1CC[C@@H](N3CC4COCC4C3)CC1)CO2 (stereo partly drawn) [Compound 14]	3.7 nM	3.7 nM		3.3 nM	6.8 nM		
CSc1cc(C)[nH]c(=O)c1CNC(=O)c1cc(Cl)c2c(c1C)OC(C1CCN(CC3CC3)CC1)CO2 (stereo not drawn) [Compound 16]	5.2 nM	29.6 nM		19.8 nM	85.9 nM		
CSc1cc(C)[nH]c(=O)c1CNC(=O)c1cc(Cl)c2c(c1C)O[C@@H]([C@H]1CC[C@@H](N3CCN(C)CC3)CC1)CO2 [Compound 18]	3.5 nM	7.4 nM		17.7 nM	22.8 nM		
CSc1cc(C)[nH]c(=O)c1CNC(=O)c1cc(Cl)c2c(c1C)O[C@@H]([C@H]1CC[C@H](N3CCN(C)CC3)CC1)CO2 [Compound 19]	3.4 nM	26.3 nM		89.5 nM	284 nM		
CSc1cc(C)[nH]c(=O)c1CNC(=O)c1cc(Cl)c2c(c1C)O[C@@H]([C@H]1CC[C@@H](N3CC(CF)C3)CC1)CO2 [Compound 34]				5.8 nM	6.2 nM		
COc1cc(C)[nH]c(=O)c1CNC(=O)c1cc(Cl)c2c(c1C)O[C@@H]([C@H]1CC[C@@H](N3CC[C@H](OC)C3)CC1)CO2 [Compound 119]				12.9 nM			
COc1cc(C)[nH]c(=O)c1CNC(=O)c1cc(Cl)c2c(c1C)O[C@@H]([C@H]1CC[C@H](N3CC[C@H](OC)C3)CC1)CO2 [Compound 120]				31.5 nM			
COc1cc(C)[nH]c(=O)c1CNC(=O)c1cc(Cl)c2c(c1C)O[C@@H]([C@H]1CC[C@@H](N3CC[C@@H](OC)C3)CC1)CO2 [Compound 121]				35.8 nM	92.3 nM		
COc1cc(C)[nH]c(=O)c1CNC(=O)c1cc(Cl)c2c(c1C)O[C@@H]([C@H]1CC[C@H](N3CC[C@@H](OC)C3)CC1)CO2 [Compound 122]				472 nM			
CSc1cc(C)[nH]c(=O)c1CNC(=O)c1cc(C#N)c2c(c1C)O[C@@H]([C@H]1CC[C@@H](N3CC(OC(F)F)C3)CC1)CO2 [Compound 163]	7.1 nM			1.7 nM	1.9 nM		
C#Cc1cc(C(=O)NCc2c(SC)cc(C)[nH]c2=O)c(C)c2c1OC[C@H]([C@H]1CC[C@@H](N3CC(OC)C3)CC1)O2 [Compound 165]				1.2 nM	1.4 nM		
Cc1c(C(=O)NCC2COC2)cc(Cl)c2c1O[C@@H]([C@H]1CC[C@@H](N(C)C)CC1)CO2 [Compound 167]							> 1000 nM
Cc1c(C(=O)NCC2COC2)cc(Cl)c2c1O[C@@H]([C@H]1CC[C@H](N(C)C)CC1)CO2 [Compound 168]							> 1000 nM
COC1CN([C@H]2CC[C@H]([C@H]3COc4c(F)cc(C(=O)NCc5c(SC)cc(C)[nH]c5=O)c(C)c4O3)CC2)C1 [Compound 170]				46.8 nM			
COC1CN([C@H]2CC[C@H]([C@@H]3COc4c(F)cc(C(=O)NCc5c(SC)cc(C)[nH]c5=O)c(C)c4O3)CC2)C1 [Compound 171]				> 1000 nM	> 1000 nM		
COC1CN([C@H]2CC[C@@H]([C@@H]3COc4c(F)cc(C(=O)NCc5c(SC)cc(C)[nH]c5=O)c(C)c4O3)CC2)C1 [Compound 172]				373 nM			
Cc1cc(Cl)c(CNC(=O)c2cc(Cl)c3c(c2C)O[C@@H]([C@H]2CC[C@@H](N(C)C)CC2)CO3)c(=O)[nH]1 [Compound 173]				124 nM			
Cc1cc(Cl)c(CNC(=O)c2cc(Cl)c3c(c2C)O[C@@H]([C@H]2CC[C@H](N(C)C)CC2)CO3)c(=O)[nH]1 [Compound 174]	3.1 nM	7.2 nM		5.6 nM			
COC1CN([C@H]2CC[C@H]([C@H]3COc4c(Cl)cc(C(=O)NCc5c(Cl)cc(C)[nH]c5=O)c(C)c4O3)CC2)C1 [Compound 176]				197 nM			
COc1cc(C)[nH]c(=O)c1CNC(=O)c1cc(Cl)c2c(c1C)O[C@@H]([C@H]1CC[C@@H](OCCF)CC1)CO2 [Compound 179]				36.6 nM			
COc1cc(C)[nH]c(=O)c1CNC(=O)c1cc(Cl)c2c(c1C)O[C@@H]([C@H]1CC[C@H](OCCF)CC1)CO2 [Compound 180]				10.8 nM			
